Source: patent publication US7022718B2, “Pyridine and pyrimidine derivatives” (Hoffmann-La Roche Inc., priority 2002, dated 2006)

biological target: human DPP-IV (Homo sapiens, UniProt P27487); test: DPP-IV activity assay (fluorometric / colorimetric), IC50 determination; settings: not given
Sequence (P27487 31-766): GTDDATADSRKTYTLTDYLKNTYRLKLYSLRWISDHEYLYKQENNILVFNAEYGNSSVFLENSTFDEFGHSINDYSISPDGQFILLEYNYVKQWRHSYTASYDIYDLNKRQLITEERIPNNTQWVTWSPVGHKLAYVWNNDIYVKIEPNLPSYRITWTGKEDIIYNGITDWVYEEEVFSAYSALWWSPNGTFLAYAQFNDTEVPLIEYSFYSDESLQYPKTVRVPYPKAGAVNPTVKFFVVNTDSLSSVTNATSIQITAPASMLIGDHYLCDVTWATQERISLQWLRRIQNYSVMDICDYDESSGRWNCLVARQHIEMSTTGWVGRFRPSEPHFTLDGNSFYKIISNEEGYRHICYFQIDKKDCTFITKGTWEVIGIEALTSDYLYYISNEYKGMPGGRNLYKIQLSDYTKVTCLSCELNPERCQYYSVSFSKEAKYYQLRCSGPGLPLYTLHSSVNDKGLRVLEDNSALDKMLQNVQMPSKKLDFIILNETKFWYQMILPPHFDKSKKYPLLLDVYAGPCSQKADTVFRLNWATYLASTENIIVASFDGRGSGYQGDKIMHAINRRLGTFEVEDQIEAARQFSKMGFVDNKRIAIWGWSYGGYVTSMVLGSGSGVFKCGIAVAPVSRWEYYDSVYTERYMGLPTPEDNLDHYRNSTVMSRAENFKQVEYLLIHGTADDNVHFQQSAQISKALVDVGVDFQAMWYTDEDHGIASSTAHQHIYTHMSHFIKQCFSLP

SMILES	IC50
Cc1ccc(-c2nc(-c3ccccc3)nc(N)c2CN)c(C)c1 [Example 11, 5-Aminomethyl-6-(2,4-dimethyl-phenyl)-2-phenyl-pyrimidin-4-ylamine]	172 nM
NCc1c(N)nc(-c2cc3ccccc3o2)nc1-c1ccc(Cl)cc1Cl [Example 16, 5-Aminomethyl-2-benzofuran-2-yl-6-(2,4-dichloro-phenyl)-pyrimidin-4-ylamine]	0.7 nM
NCc1c(N)nc(N2CCCCCC2)nc1-c1ccc(Cl)cc1Cl [Example 20, 5-Aminomethyl-2-azepan-1-yl-6-(2,4-dichloro-phenyl)-pyrimidin-4-ylamine]	3 nM
CSc1nc(N)c(CN)c(-c2ccc(Cl)cc2Cl)n1 [Example 23, 5-Aminomethyl-6-(2,4-dichloro-phenyl)-2-methylsulfanyl-pyrimidin-4-ylamine]	13 nM
CCc1ccc(-c2nc(-c3ccccc3)nc(N)c2CN)cc1 [Example 43, 5-Aminomethyl-6-(4-ethyl-phenyl)-2-phenyl-pyrimidin-4-ylamine]	389 nM
CNCc1c(N)nc(-c2ccccc2)nc1-c1ccc(Cl)cc1Cl [Example 76, 6-(2,4-Dichloro-phenyl)-5-methylaminomethyl-2-phenyl-pyrimidin-4-ylamine]	391 nM
Cc1c(-c2ccccc2)nc(N)c(CN)c1-c1ccc(Cl)cc1Cl [Example 79, 3-Aminomethyl-4-(2,4-dichloro-phenyl)-5-methyl-6-phenyl-pyridin-2-ylamine]	873 nM

same assay, conditions: natural human DPP-IV from human plasma pool or recombinant human DPP-IV; 37° C., pH 7.8

SMILES	IC50
NCc1c(N)nc(-c2cccc(F)c2)nc1-c1ccc(Cl)cc1Cl [Example 13, 5-Aminomethyl-6-(2,4-dichloro-phenyl)-2-(3-fluoro-phenyl)-pyrimidin-4-ylamine]	0.2 nM
